Read-outs that look alike come from different tables or passages of the source. Marks after values point to notes of the source that are not given here.
What was measured:
[1] = in vivo; settings: beagle, dog
[2] = dog, 13-week
[3] = rat, in vivo
[4] = Plasma pharmacokinetics of Compound 1 in patients with advanced solid tumor malignancies and TGCT; assay type: in vivo, human; settings: for Cmax / AUC(0-t) / Tmax: human, plasma, oral; for Tmax: Median (Min, Max)
Procedure: PK analysis was conducted on all 38 patients. Serial blood samples were collected for PK and took place on either Day −7, Cycle 1, Day 1 (C1D1) and C2D1 at pre-dose, 0.5, 1, 2, 4, 6, 8, 10-12, and 24 hr time points or Day −7, C1D1, C1D8, and C2D1 at pre-dose, 1, 2, 4, 6, and 8 hr time points, or C1D1, C1D8, and C2D1 at pre-dose, 1, 2, 4, 6, and 8 hr time points. High fat meal was given prior to dosing of Compound 1 on Day −7. PD effects were measured by two methodologies: 1) depletion of CSF1R-expressing monocytes in peripheral blood (Cohorts 1-7) from C1D1, C1D15 and C2D1; and 2) increase of plasma levels of CSF1 and IL-34, the ligands for CSF1R (Cohorts 1-7) on C1D1, C1D15, and C2D1. For the CD16^+ monocyte assay, whole blood collected in an EDTA vacutainer was aliquoted into tubes and incubated with fluorescently-labeled antibodies (CD14-Alexa488 (BD Pharmingen); CD16-PE-Cy7 (BD Pharmingen); and TIE2-APC (R&D Systems). After incubation, red blood cells were lysed, and the remaining cells were washed several times before being analyzed on a flow cytometer. For the plasma CSF1 assay or IL-34, whole blood collected in an EDTA vacutainer was centrifuged, and the plasma was collected and frozen. Plasma levels of CSF1 or IL-34 were measured using a commercial ELISA kit (R&D Systems).
Cohort 1 had daily dosing.

Cc1nc(-c2cnc(NC(C)C)n(C)c2=O)ccc1Oc1ccnc(-c2cnn(C)c2)c1 [Compound 1, 2-(isopropylamino)-3-methyl-5-(6-methyl-5-((2-(1-methyl-1H-pyrazol-4-yl)pyridin-4-yl)oxy)pyridin-2-yl)pyrimidin-4(3H)-one]
NOAEL at 13 weeks [1]: 8 mg/kg/day | microscopic liver changes [2]: without corresponding microscopic liver changes | increases in AST, GLDH and creatine kinase activities ([2]; 8 mg/kg/day): minimal or mild | STD10 ([3]; Sprague-Dawley, 13 weeks): 7.5 mg/kg/day | increases in AST, ALT, GLDH and ALP activities [3]: minimal or mild | Ctrough ([4]; Cohort 1 10 mg QD, C1D8, Geo Mean): 331 ng/mL | Ctrough ([4]; Cohort 1 10 mg QD, C2D1, Geo Mean): 447^c ng/mL | Ctrough ([4]; Cohort 2 10 mg QD x 5 d, BIW maintenance dose, C1D8, Geo Mean): 184 ng/mL | Ctrough ([4]; Cohort 2 10 mg QD x 5 d, BIW maintenance dose, C2D1, Geo Mean): 122 ng/mL | AUC0-8 ([4]; Cohort 2 10 mg Twice Weekly after 5-day QD loading dose, C2D1, GM (CV %)): 1030 (63) hr*ng/mL | Ctrough ([4]; Cohort 3 20 mg QD x 5 d, QW maintenance dose, C1D8, Geo Mean): 850 ng/mL | Ctrough ([4]; Cohort 3 20 mg QD x 5 d, QW maintenance dose, C2D1, Geo Mean): 205 ng/mL | AUC0-8 ([4]; Cohort 3 20 mg Weekly after 5-day QD loading dose, C2D1, GM (CV %)): 3380 ng·h/mL | Ctrough ([4]; Cohort 4 20 mg QD x 5 d, BIW maintenance dose, C1D8, Geo Mean): 483 ng/mL | Ctrough ([4]; Cohort 4 20 mg QD x 5 d, BIW maintenance dose, C2D1, Geo Mean): 441 ng/mL | AUC0-8 ([4]; Cohort 4 20 mg Twice Weekly after 5-day QD loading dose, C2D1, GM (CV %)): 4300 (2.82) hr*ng/mL | Ctrough ([4]; Cohort 5 30 mg QD x 5 d, BIW maintenance dose, C1D8, Geo Mean): 1020 ng/mL | Ctrough ([4]; Cohort 5 30 mg QD x 5 d, BIW maintenance dose, C2D1, Geo Mean): 574 ng/mL | AUC0-8 ([4]; Cohort 5 30 mg Twice Weekly after 5-day QD loading dose, C2D1, GM (CV %)): 4750 (53.2) hr*ng/mL | Ctrough ([4]; Cohort 6 30 mg QD x 5 d, BIW maintenance dose (so in the source), C2D1, Geo Mean): 570 ng/mL | AUC0-8 ([4]; Cohort 6 40 mg Twice Weekly after 5-day QD loading dose, C2D1, GM (CV %)): 7290 (28.1) hr*ng/mL | AUC0-8 ([4]; Cohort 7 20 mg QD after 3-day 50 mg QD loading dose, C2D1, GM (CV %)): 5580 (86.8) hr*ng/mL | Ctrough ([4]; Cohort 7 50 mg QD x 3 d, QD maintenance dose, C2D1, Geo Mean): 1040 ng/mL | Cmax ([4]; 10 mg, Cohort 1 10 mg QD, C1D1, GM (CV %)): 155 ng/mL | AUC(0-t) ([4]; 10 mg, Cohort 1 10 mg QD, C1D1, GM (CV %), read-out: AUC0-8): 770 ng·h/mL | Cmax ([4]; 10 mg, Cohort 1 10 mg QD, C1D1, Geo Mean): 155 ng/mL | AUC(0-t) ([4]; 10 mg, Cohort 1 10 mg QD, C1D1, Geo Mean, read-out: AUC0-8 h): 770 ng·h/mL | Tmax ([4]; 10 mg, Cohort 1 10 mg QD, C1D1): 1 h | Cmax ([4]; 10 mg, Cohort 1 10 mg QD, C2D1, GM (CV %)): 767 ng/mL | AUC(0-t) ([4]; 10 mg, Cohort 1 10 mg QD, C2D1, GM (CV %), read-out: AUC0-8): 4510 ng·h/mL | Cmax ([4]; 10 mg, Cohort 1 10 mg QD, C2D1, Geo Mean): 767 ng/mL | AUC(0-t) ([4]; 10 mg, Cohort 1 10 mg QD, C2D1, Geo Mean, read-out: AUC0-8 h): 4470 ng·h/mL | Tmax ([4]; 10 mg, Cohort 1 10 mg QD, C2D1): 0.5 h | Cmax ([4]; 10 mg, Cohort 1 10 mg QD, Day -7, Geo Mean): 75.9 ng/mL | AUC(0-t) ([4]; 10 mg, Cohort 1 10 mg QD, Day -7, Geo Mean, read-out: AUC0-8 h): 429 ng·h/mL | Cmax ([4]; 10 mg, Cohort 1 10 mg QD, Day-7, GM (CV %)): 75.9 ng/mL | AUC(0-t) ([4]; 10 mg, Cohort 1 10 mg QD, Day-7, GM (CV %), read-out: AUC0-8): 425 ng·h/mL | Cmax ([4]; 10 mg, Cohort 2 10 mg QD x 5 d, BIW maintenance dose, C1D1, Geo Mean): 168 ng/mL | AUC(0-t) ([4]; 10 mg, Cohort 2 10 mg QD x 5 d, BIW maintenance dose, C1D1, Geo Mean, read-out: AUC0-8 h): 1080 ng·h/mL | Cmax ([4]; 10 mg, Cohort 2 10 mg QD x 5 d, BIW maintenance dose, C1D8, Geo Mean): 248 ng/mL | AUC(0-t) ([4]; 10 mg, Cohort 2 10 mg QD x 5 d, BIW maintenance dose, C1D8, Geo Mean, read-out: AUC0-8 h): 1730 ng·h/mL | Cmax ([4]; 10 mg, Cohort 2 10 mg QD x 5 d, BIW maintenance dose, C2D1, Geo Mean): 149 ng/mL | AUC(0-t) ([4]; 10 mg, Cohort 2 10 mg QD x 5 d, BIW maintenance dose, C2D1, Geo Mean, read-out: AUC0-8 h): 1030 ng·h/mL | Cmax ([4]; 10 mg, Cohort 2 10 mg QD x 5 d, BIW maintenance dose, Day -7, Geo Mean): 119 ng/mL | AUC(0-t) ([4]; 10 mg, Cohort 2 10 mg QD x 5 d, BIW maintenance dose, Day -7, Geo Mean, read-out: AUC0-8 h): 781 ng·h/mL | Cmax ([4]; 10 mg, Cohort 2 10 mg Twice Weekly after 5-day QD loading dose, C1D1, GM (CV %)): 94 ng/mL | AUC(0-t) ([4]; 10 mg, Cohort 2 10 mg Twice Weekly after 5-day QD loading dose, C1D1, GM (CV %), read-out: AUC0-8): 467 ng·h/mL | Cmax ([4]; 10 mg, Cohort 2 10 mg Twice Weekly after 5-day QD loading dose, C1D8, GM (CV %)): 248 ng/mL | AUC(0-t) ([4]; 10 mg, Cohort 2 10 mg Twice Weekly after 5-day QD loading dose, C1D8, GM (CV %), read-out: AUC0-8): 1730 ng·h/mL | Tmax ([4]; 10 mg, Cohort 2 10 mg Twice Weekly after 5-day QD loading dose, C1D8): 1 h | Cmax ([4]; 10 mg, Cohort 2 10 mg Twice Weekly after 5-day QD loading dose, C2D1, GM (CV %)): 149 ng/mL | AUC(0-t) ([4]; 10 mg, Cohort 2 10 mg Twice Weekly after 5-day QD loading dose, C2D1, GM (CV %), read-out: AUC0-8): 1030 ng·h/mL | Tmax ([4]; 10 mg, Cohort 2 10 mg Twice Weekly after 5-day QD loading dose, C2D1): 1 h | Cmax ([4]; 10 mg, Cohort 2 10 mg Twice Weekly after 5-day QD loading dose, Day-7, GM (CV %)): 80.2 ng/mL | AUC(0-t) ([4]; 10 mg, Cohort 2 10 mg Twice Weekly after 5-day QD loading dose, Day-7, GM (CV %), read-out: AUC0-8): 353 ng·h/mL | Cmax ([4]; 20 mg, Cohort 3 20 mg QD x 5 d, QW maintenance dose, C1D1, Geo Mean): 466 ng/mL | AUC(0-t) ([4]; 20 mg, Cohort 3 20 mg QD x 5 d, QW maintenance dose, C1D1, Geo Mean, read-out: AUC0-8 h): 2510 ng·h/mL | Cmax ([4]; 20 mg, Cohort 3 20 mg QD x 5 d, QW maintenance dose, C1D8, Geo Mean): 1160 ng/mL | AUC(0-t) ([4]; 20 mg, Cohort 3 20 mg QD x 5 d, QW maintenance dose, C1D8, Geo Mean, read-out: AUC0-8 h): 7410 ng·h/mL | Cmax ([4]; 20 mg, Cohort 3 20 mg QD x 5 d, QW maintenance dose, C2D1, Geo Mean): 530 ng/mL | AUC(0-t) ([4]; 20 mg, Cohort 3 20 mg QD x 5 d, QW maintenance dose, C2D1, Geo Mean, read-out: AUC0-8 h): 3380 ng·h/mL | Cmax ([4]; 20 mg, Cohort 3 20 mg QD x 5 d, QW maintenance dose, Day -7, Geo Mean): 242 ng/mL | AUC(0-t) ([4]; 20 mg, Cohort 3 20 mg QD x 5 d, QW maintenance dose, Day -7, Geo Mean, read-out: AUC0-8 h): 1320 ng·h/mL | Cmax ([4]; 20 mg, Cohort 3 20 mg Weekly after 5-day QD loading dose, C1D1, GM (CV %)): 466 ng/mL | AUC(0-t) ([4]; 20 mg, Cohort 3 20 mg Weekly after 5-day QD loading dose, C1D1, GM (CV %), read-out: AUC0-8): 2510 ng·h/mL | Tmax ([4]; 20 mg, Cohort 3 20 mg Weekly after 5-day QD loading dose, C1D1): 1 h | Cmax ([4]; 20 mg, Cohort 3 20 mg Weekly after 5-day QD loading dose, C1D8, GM (CV %)): 1160 ng/mL | AUC(0-t) ([4]; 20 mg, Cohort 3 20 mg Weekly after 5-day QD loading dose, C1D8, GM (CV %), read-out: AUC0-8): 7290 ng·h/mL | Tmax ([4]; 20 mg, Cohort 3 20 mg Weekly after 5-day QD loading dose, C1D8): 1 h

Reference: patent publication US11679110B2, “Methods of treating disorders using CSF1R inhibitors” (Deciphera Pharmaceuticals, LLC, priority 2018, dated 2023)
